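Each compound was tested at five concentrations against cells in 96-well plates for 48 hours. GI50: concentration for 50% inhibition of growth. Definition used: TGI = concentration required for complete inhibition of growth.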
Legend:
Test in all cases: growth of human tumour cells (NCI), 48 h
HCT-15 colon = tested on: HCT-15 colon
LOX IMVI melanoma = tested on: LOX IMVI melanoma
MDA-MB-231 breast = tested on: MDA-MB-231 breast
MOLT-4 leukemia = tested on: MOLT-4 leukemia
DU-145 prostate = tested on: DU-145 prostate
COLO 205 colon = tested on: COLO 205 colon
A498 renal = tested on: A498 renal
HL-60(TB) leukemia = tested on: HL-60(TB) leukemia
HS 578T breast = tested on: HS 578T breast
PC-3 prostate = tested on: PC-3 prostate
ACHN renal = tested on: ACHN renal
NCI-H522 lung = tested on: NCI-H522 lung
HOP-92 NSCLC = tested on: HOP-92 NSCLC
UO-31 renal = tested on: UO-31 renal
A549 NSCLC = tested on: A549 NSCLC
SNB-19 CNS = tested on: SNB-19 CNS
OVCAR-5 ovarian = tested on: OVCAR-5 ovarian
OVCAR-4 ovarian = tested on: OVCAR-4 ovarian
NCI-H226 lung = tested on: NCI-H226 lung
NCI-H23 lung = tested on: NCI-H23 lung
SF-295 CNS = tested on: SF-295 CNS
NCI-H460 lung = tested on: NCI-H460 lung
IGROV1 ovarian = tested on: IGROV1 ovarian
UACC-62 melanoma = tested on: UACC-62 melanoma
HCT-116 colon = tested on: HCT-116 colon
MDA-MB-468 breast = tested on: MDA-MB-468 breast
T-47D breast = tested on: T-47D breast
SR leukemia = tested on: SR leukemia
786-0 renal = tested on: 786-0 renal
K-562 leukemia = tested on: K-562 leukemia
MDA-MB-435 = tested on: MDA-MB-435
SNB-75 CNS = tested on: SNB-75 CNS
KM12 colon = tested on: KM12 colon
SK-MEL-2 melanoma = tested on: SK-MEL-2 melanoma
OVCAR-3 ovarian = tested on: OVCAR-3 ovarian
HT29 colon = tested on: HT29 colon
SK-MEL-28 melanoma = tested on: SK-MEL-28 melanoma
U251 CNS = tested on: U251 CNS
SF-268 CNS = tested on: SF-268 CNS
SW-620 colon = tested on: SW-620 colon
BT-549 breast = tested on: BT-549 breast
MALME-3M melanoma = tested on: MALME-3M melanoma
SK-OV-3 ovarian = tested on: SK-OV-3 ovarian
SN12C renal = tested on: SN12C renal
CCRF-CEM leukemia = tested on: CCRF-CEM leukemia
MCF7 breast = tested on: MCF7 breast
CAKI-1 renal = tested on: CAKI-1 renal
OVCAR-8 ovarian = tested on: OVCAR-8 ovarian
TK-10 renal = tested on: TK-10 renal
UACC-257 melanoma = tested on: UACC-257 melanoma
SF-539 CNS = tested on: SF-539 CNS
HCC-2998 colon = tested on: HCC-2998 colon
EKVX NSCLC = tested on: EKVX NSCLC
HOP-62 NSCLC = tested on: HOP-62 NSCLC
M14 melanoma = tested on: M14 melanoma
RXF 393 renal = tested on: RXF 393 renal
RPMI-8226 leukemia = tested on: RPMI-8226 leukemia
SK-MEL-5 melanoma = tested on: SK-MEL-5 melanoma
NCI/ADR-RES ovarian = tested on: NCI/ADR-RES ovarian

## COP(=O)(CC(F)(F)C(F)(F)F)OC
HCT-15 colon
  GI50: 1.76 µM
  TGI: 4.93 µM
LOX IMVI melanoma
  GI50: 1.7 µM
  TGI: 3.54 µM
MDA-MB-231 breast
  GI50: 8.95 µM
  TGI: 22.9 µM
MOLT-4 leukemia
  GI50: 3.06 µM
  TGI: 10.8 µM
DU-145 prostate
  GI50: 10.5 µM
  TGI: 24.5 µM
COLO 205 colon
  GI50: 1.99 µM
  TGI: 3.62 µM
A498 renal
  GI50: 22.1 µM
  TGI: 41.1 µM
HL-60(TB) leukemia
  GI50: 2.15 µM
  TGI: 5.33 µM
HS 578T breast
  GI50: 15.1 µM
  TGI: 79.4 µM
PC-3 prostate
  GI50: 7.87 µM
  TGI: 25.2 µM
ACHN renal
  GI50: 2.12 µM
  TGI: 4.52 µM
NCI-H522 lung
  GI50: 1.48 µM
  TGI: 3.02 µM
HOP-92 NSCLC
  GI50: 3.89 µM
  TGI: 13.1 µM
UO-31 renal
  GI50: 1.71 µM
  TGI: 3.64 µM
A549 NSCLC
  GI50: 22.1 µM
  TGI: 53.1 µM
SNB-19 CNS
  GI50: 24.8 µM
  TGI: 77 µM
OVCAR-5 ovarian
  GI50: 17.5 µM
  TGI: 32.2 µM
OVCAR-4 ovarian
  GI50: 14 µM
  TGI: 30 µM
NCI-H226 lung
  GI50: 23.2 µM
  TGI: 73.1 µM
NCI-H23 lung
  GI50: 7.36 µM
  TGI: 21.4 µM
SF-295 CNS
  GI50: 16.5 µM
  TGI: 31.8 µM
NCI-H460 lung
  GI50: 18 µM
  TGI: 38.1 µM
IGROV1 ovarian
  GI50: 19.9 µM
  TGI: 42.5 µM
UACC-62 melanoma
  GI50: 4.95 µM
  TGI: 18 µM
HCT-116 colon
  GI50: 2.21 µM
  TGI: 5.99 µM
MDA-MB-468 breast
  GI50: 1.35 µM
  TGI: 3.16 µM
T-47D breast
  GI50: 2.36 µM
  TGI: 7.99 µM
SR leukemia
  GI50: 3.15 µM
  TGI: 12.2 µM
786-0 renal
  GI50: 6.27 µM
  TGI: 20.4 µM
K-562 leukemia
  GI50: 2.93 µM
  TGI: 14.3 µM
MDA-MB-435
  GI50: 6.7 µM
  TGI: 22.4 µM
SNB-75 CNS
  GI50: 4.93 µM
  TGI: 55.3 µM
KM12 colon
  GI50: 19.4 µM
  TGI: 40.1 µM
SK-MEL-2 melanoma
  GI50: 16.3 µM
  TGI: 38.4 µM
OVCAR-3 ovarian
  GI50: 3.44 µM
  TGI: 12.1 µM
HT29 colon
  GI50: 2.46 µM
  TGI: 5.17 µM
SK-MEL-28 melanoma
  GI50: 1.87 µM
  TGI: 3.89 µM
U251 CNS
  GI50: 17.6 µM
  TGI: 38 µM
SF-268 CNS
  GI50: 24.2 µM
  TGI: 64.2 µM
SW-620 colon
  GI50: 2.04 µM
  TGI: 4.2 µM
BT-549 breast
  GI50: 6.26 µM
  TGI: 20.4 µM
MALME-3M melanoma
  GI50: 2.32 µM
  TGI: 5.62 µM
SK-OV-3 ovarian
  GI50: 30.1 µM
  TGI: 76.1 µM
SN12C renal
  GI50: 18.5 µM
  TGI: 37.5 µM
CCRF-CEM leukemia
  GI50: 2.43 µM
  TGI: 8.68 µM
MCF7 breast
  GI50: 2.05 µM
  TGI: 10.5 µM
CAKI-1 renal
  GI50: 2.6 µM
  TGI: 6.49 µM
OVCAR-8 ovarian
  GI50: 17.2 µM
  TGI: 84.2 µM
TK-10 renal
  GI50: 3.08 µM
  TGI: 7.36 µM
UACC-257 melanoma
  GI50: 1.94 µM
  TGI: 5.83 µM
SF-539 CNS
  GI50: 2.55 µM
  TGI: 7.21 µM
HCC-2998 colon
  GI50: 13.6 µM
  TGI: 27 µM
EKVX NSCLC
  GI50: 2.71 µM
  TGI: 8.33 µM
HOP-62 NSCLC
  GI50: 22.7 µM
  TGI: 52.7 µM
M14 melanoma
  GI50: 1.8 µM
  TGI: 3.77 µM
RXF 393 renal
  GI50: 1.33 µM
  TGI: 2.92 µM
RPMI-8226 leukemia
  GI50: 3.07 µM
  TGI: 8.49 µM
SK-MEL-5 melanoma
  GI50: 5.98 µM
  TGI: 19.2 µM
NCI/ADR-RES ovarian
  GI50: 2.83 µM
  TGI: 10.2 µM

Reference: PubChem BioAssay (NCI)
